Values of other authors in US7368585B2, “Synthetic techniques and intermediates for polyhydroxy dienyl lactones and mimics thereof” (The Trustees Of The University Of Pennsylvania, priority 1996, dated 2008).

Tests used:
[1] = tested on: two-way mixed-lymphocyte reaction; details: in vitro
murine splenocytes [2] = details: in vitro
murine splenocytes [3] = details: in vitro; remark: listed apart in the source
[4] = tested on: graft-vs.-host splenomegaly response; details: in vivo
[5] = tested on: cell development at the M phase; details: by binding and stabilizing mitotic spindle microtubules
[6] = tested on: mitotic spindle microtubules; details: compared with taxol

C=C/C=C\[C@H](C)[C@H](OC(N)=O)[C@@H](C)[C@H](O)[C@@H](C)C/C(C)=C\[C@H](C)[C@@H](O)[C@@H](C)/C=C\[C@@H](O)C[C@@H]1OC(=O)[C@H](C)[C@@H](O)[C@H]1C [(+)-discodermolide]
suppression of the two-way mixed-lymphocyte reaction [1]: suppresses | suppression of concanavalin A-induced mitogenesis of murine splenocytes (murine splenocytes [2]): suppresses | associated cytotoxicity (murine splenocytes [3]): no associated cytotoxicity | potency in graft-vs.-host splenomegaly response relative to cyclosporin A and FK506 ([4]; F1 recipient mice): intermediate between those of cyclosporin A and FK506 | suppression of graft-vs.-host splenomegaly response ([4]; injection of parental splenocytes into F1 recipient mice): suppresses | cell cycle effect [5]: arrests cell development at the M phase | microtubule binding affinity relative to taxol [6]: much higher
